The source of these data is patent US12673927B2, “Substituted aminothiazoles as DGKzeta inhibitors for immune activation” (Deutsches Krebsforschungszentrum, priority 2020, dated 2026).

Structures are written as SMILES. Like-named read-outs stand apart in the source and are kept apart here.

The target in the experiment is T1, human DGKζ (Homo sapiens, UniProt Q13574).
T1 construct: made in house; host or cells: Sf9 insect cells, baculovirus
As to the kind of experiment: Human DGKζ kinase activity inhibition assay (ADP-Glo). Format: biochemical. Here is the method:
Human DGKζ Kinase Activity Inhibition Assay
Human diacylglycerol kinase zeta (DGKζ) inhibitory activity of compounds of the present invention was quantified employing the human DGKζ kinase activity assay as described in the following paragraphs. In essence, the enzyme activity was measured by quantification of the adenosine-di-phosphate (ADP) generated as a co-product of the enzyme reaction via the “ADP-Glo™ Kinase Assay” kit from the company Promega. This detection system works as follows: In a first step the adenosine-tri-phosphate (ATP) not consumed in the kinase reaction is quantitatively converted to cyclic adenosine-mono-phosphate (cAMP) employing an adenylate cyclase (“ADP-Glo-reagent”), then the adenylate cyclase is stopped and the ADP generated in the kinase reaction is converted to ATP, which subsequently generates in a luciferase-based reaction a glow-luminescence signal (“Kinase Detection Reagent”).
C-terminally FLAG-tagged, recombinant full-length human DGKζ (inhouse expressed in baculovirus infected insect cells, purified using anti-Flag pulldown and size exclusion chromatography) was used as enzyme. As an alternative, commercially available enzyme by Carnabio can be used. As substrate for the kinase, 1,2-dioleoyl-sn-glycerol, reconstituted in octyl-β-D-glucopyranoside micelles, was used. […] Subsequently, 22.55 volumes of a 510 mM solution of octyl-β-D-glucopyranoside (Sigma-Aldrich, Cat. #08001-10G) in 50 mM MOPS buffer (pH 7.4) were added, and the mixture was sonicated in an ultrasonic bath for 20 s. Then 35 volumes of 50 mM MOPS buffer (pH 7.4) were added to yield a solution of 0.28 mM 1,2 dioleoyl-sn-glycerol and 200 mM octyl-β-D-glucopyranoside, which was aliquoted, flash-frozen in liquid nitrogen, and stored at −20° C. until use.
For the assay 50 nl of a 100-fold concentrated solution of the test compound in dimethyl sulfoxide (DMSO, Sigma) was pipetted into either a white 1536-well or a white low-volume 384-well microtiter plate (both Greiner Bio-One, Frickenhausen, Germany). […] The concentration of DGKζ was adjusted depending of the activity of the enzyme lot and was chosen appropriate to have the assay in the linear range, a typical concentration is about 0.1 nM. The reaction was stopped by the addition of 2.5 μL of “ADP-Glo-reagent” (1 to 1.5 diluted with water) and the resulting mixture was incubated at 22° C. for 1 h to convert the ATP not consumed in the kinase reaction completely to cAMP. Subsequently 2.5 μl of the “kinase detection reagent” (1.2 fold more concentrated than recommended by the producer) were added, the resulting mixture was incubated at 22° C. for 1 h and then the luminescence measured with a suitable measurement instrument (e.g. Viewlux™ from Perkin-Elmer). The amount of emitted light was taken as a measure for the amount of ADP generated and thereby for the activity of the DGKζ.
The data were normalised (enzyme reaction without inhibitor=0% inhibition, all other assay components but no enzyme=100% inhibition).

Where [1] appears, read: recombinant full-length human DGKζ, 55 μM ATP, 7 μM 1,2-dioleoyl-sn-glycerol, 20 min at 22° C., read-out: IC50 in vitro human DGKζ kinase activity inhibition assay.
Where [2] appears, read: intermediates (lacking the R2 side chain; comparative), highest test concentration 20 μM, read-out: IC50 values of intermediates in in vitro human DGKζ kinase activity inhibition assays.

T1 sequence (Q13574 with tags, fused parts or gaps): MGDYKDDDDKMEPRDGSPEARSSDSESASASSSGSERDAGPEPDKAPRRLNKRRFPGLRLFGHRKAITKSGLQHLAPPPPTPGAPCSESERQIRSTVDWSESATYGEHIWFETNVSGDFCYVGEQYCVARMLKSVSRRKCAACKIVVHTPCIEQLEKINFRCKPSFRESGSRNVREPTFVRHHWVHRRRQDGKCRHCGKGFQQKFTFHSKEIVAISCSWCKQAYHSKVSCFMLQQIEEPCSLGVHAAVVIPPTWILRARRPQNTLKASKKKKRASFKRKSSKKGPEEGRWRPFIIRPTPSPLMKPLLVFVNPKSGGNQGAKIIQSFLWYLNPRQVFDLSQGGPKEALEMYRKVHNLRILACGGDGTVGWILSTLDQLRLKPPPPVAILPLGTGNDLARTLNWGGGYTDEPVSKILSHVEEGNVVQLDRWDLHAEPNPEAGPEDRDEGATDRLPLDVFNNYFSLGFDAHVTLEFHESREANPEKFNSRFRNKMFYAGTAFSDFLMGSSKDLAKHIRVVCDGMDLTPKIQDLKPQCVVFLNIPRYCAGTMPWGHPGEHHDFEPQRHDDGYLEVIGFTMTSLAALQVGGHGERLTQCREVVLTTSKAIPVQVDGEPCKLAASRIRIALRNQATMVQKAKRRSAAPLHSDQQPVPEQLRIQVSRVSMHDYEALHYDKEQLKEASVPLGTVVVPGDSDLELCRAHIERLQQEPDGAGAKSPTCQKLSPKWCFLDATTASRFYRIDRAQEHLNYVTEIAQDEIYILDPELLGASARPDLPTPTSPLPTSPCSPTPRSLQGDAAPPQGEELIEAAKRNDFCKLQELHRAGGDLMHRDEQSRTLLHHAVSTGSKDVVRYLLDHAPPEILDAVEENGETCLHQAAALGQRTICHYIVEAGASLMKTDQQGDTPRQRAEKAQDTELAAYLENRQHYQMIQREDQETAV

In the case of `CC(C(N)=O)N(c1ccc(F)c(F)c1)c1nc(N)c(C(=O)c2ccc(NC(=O)OCc3ccccc3)cc2)s1` (single isomer, unassigned) [Example 167.1, Benzyl N-[4-[4-amino-2-(N-(2-amino-1-methyl-2-oxo-ethyl)-3,4-difluoro-anilino)thiazole-5-carbonyl]phenyl]carbamate], the IC50 under setting [1] is 0.003 µM.

In the case of `CC(C(N)=O)N(c1ccc(F)cc1)c1nc(N)c(C(=O)c2ccc(OCc3ccccc3)cc2)s1` (single isomer, unassigned) [Example 170.2, 2-(N-[4-amino-5-(4-benzyloxybenzoyl)thiazol-2-yl]-4-fluoro-anilino)propanamide], under setting [1], the IC50 was determined as 1 µM. Consider `COc1ccc(C(=O)c2sc(N(c3ccc(Cl)c(F)c3)C(C)C(N)=O)nc2N)cn1` (single isomer, unassigned) [Example 172.1, 2-(N-[4-amino-5-(6-methoxypyridine-3-carbonyl)thiazol-2-yl]-4-chloro-3-fluoro-anilino)propanamide], for which the half-inhibitory concentration (IC50) under setting [1] stood at 0.024 µM. As to `COc1ccc(C(=O)c2sc(N(c3ccc(F)cc3)C(C)C(N)=O)nc2C)cc1` (single isomer, unassigned) [Example 176.1, 2-(4-fluoro-N-[5-(4-methoxybenzoyl)-4-methyl-thiazol-2-yl]anilino)propanamide], the IC50 under setting [1] is 0.034 µM.

Take `Nc1nc(Nc2ccc(F)cc2)sc1C(=O)c1ccccc1` [Example 62]: the IC50 under setting [2] was greater than 20 µM. On to `Cc1ccc(C(=O)c2sc(Nc3ccc(F)cc3)nc2N)cc1` [Example 64], for which the IC50 under setting [2] is greater than 20 µM. Consider `Nc1nc(Nc2ccc(F)cc2)sc1C(=O)c1ccc(F)cc1` [Example 65], for which, under setting [2], the IC50 is greater than 20 µM. In the case of `Nc1nc(Nc2ccc(F)cc2F)sc1C(=O)c1ccccc1` [Example 66], the IC50 under setting [2] was greater than 20 µM. As to `COc1ccc(Nc2nc(N)c(C(=O)c3ccccc3)s2)cc1` [Example 67], under setting [2], the IC50 was greater than 20 µM.
